Data reported in ChEMBL document CHEMBL5143545, “Indolylarylsulfones bearing phenylboronic acid and phenylboronate ester functionalities as potent HIV‑1 non-nucleoside reverse transcriptase inhibitors” (Bioorg Med Chem, 2022).
≈ marks a conversion by molar mass, not a printed value.

Key:
[1] = test system: Human immunodeficiency virus 1; assay: microbe, parasite or virus in culture; details: Human immunodeficiency virus 1, 3B, MT4
Description: Antiviral activity against HIV1 3B infected in human MT4 cells assessed as protection against viral-induced cytopathogenecity by MTT assay

[2] = test system: Human immunodeficiency virus 1; assay: Antiviral activity against HIV1 with RT L100I mutant infected in human MT4 cells assessed as protection against viral-induced cytopathogenecity by MTT assay; assay type: functional, organism-based; details: Human immunodeficiency virus 1, MT4
[3] = test system: Human immunodeficiency virus 1; assay type: functional, organism-based; details: Human immunodeficiency virus 1, MT4
[4] = test system: Human immunodeficiency virus 1; assay type: functional, organism-based; details: Human immunodeficiency virus 1, MT4; remark: listed apart in the source
[5] = Solubility in water at pH 7.4; assay type: physicochemical
[6] = test system: Human immunodeficiency virus 1; assay: Antiviral activity against HIV1 with RT K103N mutant infected in human MT4 cells assessed as protection against viral-induced cytopathogenecity by MTT assay; assay type: functional, organism-based; details: Human immunodeficiency virus 1, MT4
[7] = target: Human immunodeficiency virus type 1 reverse transcriptase (Human immunodeficiency virus 1, UniProt Q72547); assay: Inhibition of HIV1 reverse transcriptase assessed as inhibition of biotin-dUTP incorporation
[8] = test system: Human immunodeficiency virus 1; assay: Antiviral activity against HIV1 with RT E138K mutant infected in human MT4 cells assessed as protection against viral-induced cytopathogenecity by MTT assay; assay type: functional, organism-based; details: Human immunodeficiency virus 1, MT4
[9] = Toxicity in mock-infected human MT4 cells assessed as reduction in cell viability by MTT assay; assay type: cell-based
in vitro = details: human, MT4 cells, mock-infected (CC50) and HIV1 3B infected (EC50)
Description: Selectivity index, ratio of CC50 for toxicity in mock-infected human MT4 cells assessed as reduction in cell viability by MTT assay to EC50 for antiviral activity against HIV1 3B infected in human MT4 cells assessed as protection against viral-induced cytopathogenecity by MTT assay

[10] = Solubility in water at pH 7; assay type: physicochemical
[11] = test system: Human immunodeficiency virus 1; assay type: functional, organism-based; details: Human immunodeficiency virus 1, MT4; remark: listed apart in the source
[12] = test system: Human immunodeficiency virus 1; assay: Antiviral activity against HIV1 with RT RES056 mutant infected in human MT4 cells assessed as protection against viral-induced cytopathogenecity by MTT assay; assay type: functional, organism-based; details: Human immunodeficiency virus 1, MT4
[13] = Solubility in water at pH 2; assay type: physicochemical

| SMILES | EC50 [1] | EC50 [2] | EC50 [3] | EC50 [4] | solubility [5] | EC50 [6] | IC50 [7] | EC50 [8] | CC50 [9] | selectivity ratio (in vitro) | solubility [10] | EC50 [11] | EC50 [12] | solubility [13] |
| --- | --- | --- | --- | --- | --- | --- | --- | --- | --- | --- | --- | --- | --- | --- |
| Cc1cc(C)cc(S(=O)(=O)c2c(C(=O)NCc3ccc(B4OC(C)(C)C(C)(C)O4)cc3)[nH]c3ccc(Cl)cc23)c1 | 0.0067 µM | 0.014 µM | 2.59 µM | 0.0699 µM | 37.7 µg/mL (≈ 65.1 µM) | 0.035 µM | 0.119 µM | 0.045 µM | 23.9 µM | 3550 | 35.8 µg/mL (≈ 61.8 µM) | 0.091 µM | 4.04 µM | 73 µg/mL (≈ 126 µM) |
| Cc1cc(C#N)cc(C)c1Oc1nc(Nc2ccc(C#N)cc2)nc(N)c1Br [ETRAVIRINE] | 0.0029 µM | 0.0076 µM |  |  | < 1 µg/mL |  |  | 0.019 µM | > 4.59 µM |  | < 2 µg/mL | 0.02 µM | 0.066 µM | < 3 µg/mL |
| Cc1cc(C)cc(S(=O)(=O)c2c(C(=O)NCCNC(=O)c3cccc(B(O)O)c3)[nH]c3ccc(Cl)cc23)c1 | 0.0408 µM | 0.26 µM | 8.1 µM | 1.34 µM |  | 0.57 µM |  | 0.243 µM | 21.1 µM | 517 |  | 0.98 µM | > 21.1 µM |  |
| Cc1cc(C)cc(S(=O)(=O)c2c(C(=O)NCc3ccc(B(O)O)cc3)[nH]c3ccc(Cl)cc23)c1 | 0.0088 µM | 0.0094 µM | 3.86 µM | 0.12 µM |  | 0.032 µM |  | 0.0537 µM | 27.7 µM | 3140 |  | 0.115 µM | 4.64 µM |  |
| Cc1cc(C)cc(S(=O)(=O)c2c(C(=O)NCCCNC(=O)c3ccc(B(O)O)cc3)[nH]c3ccc(Cl)cc23)c1 | 0.0111 µM | 0.021 µM | 2.23 µM | 0.19 µM |  | 0.033 µM |  | 0.0342 µM | 24.7 µM | 2240 |  | 0.118 µM | 4.91 µM |  |
| Cc1cc(C)cc(S(=O)(=O)c2c(C(=O)Nc3cccc(B(O)O)c3)[nH]c3ccc(Cl)cc23)c1 | 0.0189 µM | 0.0875 µM | > 5.3 µM | 0.85 µM |  | 0.1 µM |  | 0.0676 µM | 5.31 µM | 282 |  | 0.2 µM | > 5.3 µM |  |
| O=C1Nc2ccc(Cl)cc2[C@@](C#CC2CC2)(C(F)(F)F)O1 [EFAVIRENZ] |  |  | 0.21 µM | 0.0063 µM |  |  |  | 0.0066 µM | > 6.34 µM |  |  |  | 0.33 µM |  |
| Cc1cc(C)cc(S(=O)(=O)c2c(C(=O)NCc3cccc(B(O)O)c3)[nH]c3ccc(Cl)cc23)c1 | 0.0085 µM | 0.0073 µM | 0.89 µM | 0.06 µM | 94.5 µg/mL (≈ 190 µM) | 0.0092 µM | 0.123 µM | 0.0503 µM | 28 µM | 3310 | 70 µg/mL (≈ 141 µM) | 0.021 µM | 1.51 µM | 64 µg/mL (≈ 129 µM) |
| Cc1ccnc2c1NC(=O)c1cccnc1N2C1CC1 [NEVIRAPINE] | 0.16 µM |  | > 1500 µM | 11 µM |  |  |  |  | > 15 µM |  |  | > 1500 µM | > 1500 µM |  |
| Cc1cc(C)cc(S(=O)(=O)c2c(C(=O)Nc3ccc4c(c3)B(O)OC4)[nH]c3ccc(Cl)cc23)c1 | 0.0184 µM | 0.096 µM | > 1.96 µM | 0.47 µM |  | 0.11 µM |  | 0.0649 µM | 8.42 µM | 457 |  | 0.19 µM | > 8.41 µM |  |
| Cc1cc(C)cc(S(=O)(=O)c2c(C(N)=O)[nH]c3ccc(Cl)cc23)c1 | 0.0028 µM | 0.01 µM | 1.17 µM | 0.03 µM | 29 µg/mL (≈ 79.9 µM) | 0.02 µM | 0.0048 µM | 0.01 µM | 7.08 µM | 2570 | 58.3 µg/mL (≈ 161 µM) | 0.08 µM | > 7.08 µM | 71.2 µg/mL (≈ 196 µM) |
| Cc1cc(C)cc(S(=O)(=O)c2c(C(=O)Nc3ccc(B(O)O)cc3)[nH]c3ccc(Cl)cc23)c1 | 0.012 µM | 0.037 µM | > 1.62 µM | 0.215 µM |  | 0.041 µM |  | 0.0398 µM | 8.55 µM | 712 |  | 0.0795 µM | > 856 µM |  |
| Cc1cc(C)cc(S(=O)(=O)c2c(C(=O)NCCCNC(=O)c3cccc(B(O)O)c3)[nH]c3ccc(Cl)cc23)c1 | 0.0354 µM | 0.11 µM | 1.82 µM | 0.27 µM |  | 0.13 µM |  | 0.0844 µM | 24.2 µM | 684 |  | 0.22 µM | 5.4 µM |  |
| Cc1cn([C@H]2C[C@H](N=[N+]=[N-])[C@@H](CO)O2)c(=O)[nH]c1=O [ZIDOVUDINE] | 0.0212 µM | 0.0093 µM | 0.012 µM | 0.015 µM |  | 0.022 µM |  | 0.0347 µM | > 7.48 µM | > 352 |  | 0.0097 µM |  |  |
| Cc1cc(C)cc(S(=O)(=O)c2c(C(=O)NC3CCN(Cc4ccc(B(O)O)cc4)CC3)[nH]c3ccc(Cl)cc23)c1 | 0.0314 µM | 0.11 µM | > 19.3 µM | 1.07 µM |  | 0.31 µM |  | 0.646 µM | 19.3 µM | 615 |  | 1.31 µM | > 19.3 µM |  |
| Nc1ccn([C@@H]2CS[C@H](CO)O2)c(=O)n1 [LAMIVUDINE] | 5.23 µM | 1.15 µM | 4.56 µM | 3.4 µM |  | 2.79 µM |  | 8.27 µM | > 87.2 µM | > 309 |  | 2.17 µM | 5.06 µM |  |
| Cc1cc(C)cc(S(=O)(=O)c2c(C(=O)NCCNC(=O)c3ccc(B(O)O)cc3)[nH]c3ccc(Cl)cc23)c1 | 0.0198 µM | 0.23 µM | 6.76 µM | 0.91 µM |  | 0.26 µM |  | 0.162 µM | 24.4 µM | 1230 |  | 0.7 µM | > 24.3 µM |  |
| Cc1cc(C)cc(S(=O)(=O)c2c(C(=O)NC3CCN(Cc4cccc(B(O)O)c4)CC3)[nH]c3ccc(Cl)cc23)c1 | 0.0426 µM | 0.28 µM | > 6.43 µM | 1.19 µM |  | 0.51 µM |  | 0.717 µM | 6.43 µM | 151 |  | > 1.19 µM | > 6.43 µM |  |
